Measurements as given in patent US10933051B2, “Carbapenem compounds and compositions for the treatment of bacterial infections” (FOB Synthesis, Inc., priority 2017, dated 2021).

Legend:
Assay type in all cases: cell-based
Parameters in all cases: unit not given here
[1] = tested on: A. baumannii FSAb-039; experiment: Antimicrobial Susceptibility Test (CLSI), Test Example 2; conditions: Table 4; strain produces OXA-51
Experimental: (§1) Antimicrobial Susceptibility Test was performed by the CLSI (Clinical and Laboratory Standards Institute) methods. The agar dilution method for determining antimicrobial susceptibility was carried out using Mueller Hinton-II agar and the amount of inoculation was 10^4CFU/spot. Broth dilution tests were performed using the Mueller Hinton-II broth. All assays were run with the indicated control strains, available from the ATCC (American Type Culture Collection, Rockville, Md.).

[2] = tested on: E. coli FSEco-054; experiment: as above; conditions: Table 4; strain produces ESBL
Experimental: as §1

[3] = tested on: P. aeruginosa FSPa-121; experiment: as above; conditions: Table 4; strain produces OXA-17
Experimental: as §1

[4] = tested on: K. pneumoniae ATCC BAA-1904; experiment: as above; conditions: Table 4; strain produces KPC-3
Experimental: as §1

[5] = tested on: A. baumannii FSAb-029; experiment: as above; conditions: Table 4; strain produces OXA-2, IMP-1
Experimental: as §1

[6] = tested on: A. baumannii FSAb-056; experiment: as above; conditions: Table 4; strain produces OXA-23, OXA-51
Experimental: as §1

[7] = tested on: A. baumannii FSAb-065; experiment: as above; conditions: Table 4; strain produces OXA-2, VIM-2
Experimental: as §1

[8] = tested on: A. baumannii FSAb-039; experiment: Antimicrobial Susceptibility Test (CLSI), Test Example 3; conditions: Table 6; strain produces OXA-51
Experimental: as §1

[9] = tested on: E. coli FSEco-054; experiment: as above; conditions: Table 6; strain produces ESBL
Experimental: as §1

[10] = tested on: A. baumannii FSAb-029; experiment: as above; conditions: Table 6; strain produces OXA-2, IMP-1
Experimental: as §1

[11] = tested on: P. aeruginosa FSPa-102; experiment: as above; conditions: Table 6; strain produces IMP-1
Experimental: as §1

[12] = tested on: A. baumannii FSAb-056; experiment: as above; conditions: Table 6; strain produces OXA-23, 51
Experimental: as §1

[13] = tested on: P. aeruginosa FSPa-141; experiment: as above; conditions: Table 6; strain produces VIM-2
Experimental: as §1

[14] = tested on: K. pneumoniae BAA-1904; experiment: as above; conditions: Table 6; strain produces KPC-3
Experimental: as §1

[15] = tested on: A. baumannii FSAb-141; experiment: as above; conditions: Table 6; strain produces PER-1, OXA-23, 51, 66
Experimental: as §1

Row | Compound | antimicrobial susceptibility, A. baumannii FSAb-039 [1] | antimicrobial susceptibility, E. coil FSEco-054 [2] | antimicrobial susceptibility, P. aeruginosa FSPa-121 [3] | antimicrobial susceptibility, K. pneumoniae BAA-1904 [4] | antimicrobial susceptibility, A. baumannii FSAb-029 [5] | antimicrobial susceptibility, A. baumannii FSAb-056 [6] | antimicrobial susceptibility, A. baumannii FSAb-065 [7] | antimicrobial susceptibility, Ab FSAb-039 [8] | antimicrobial susceptibility, Ec FSEco-054 [9] | antimicrobial susceptibility, Ab FSAb-029 [10] | antimicrobial susceptibility, Pa FSPa-102 [11] | antimicrobial susceptibility, Ab FSAb-056 [12] | antimicrobial susceptibility, Pa FSPa-141 [13] | antimicrobial susceptibility, Kp BAA-1904 [14] | antimicrobial susceptibility, Ab FSAb-141 [15]
1 | C[C@@H](O)[C@H]1C(=O)N2C(C(=O)O)=C(CN3C[C@@H](NC(=O)c4ccc(O)c(O)c4Cl)C[C@H]3C(N)=O)[C@H](C)[C@H]12 [Compound 32] | >32 | 4 | 1 | >32 | 2 | 16 | 1 |  |  |  |  |  |  |  | 
2 | C[C@@H](O)[C@H]1C(=O)N2C(C(=O)O)=C(CN3C[C@@H](NC(=O)c4ccc(O)c(O)c4Cl)C[C@@H]3C(N)=O)[C@H](C)[C@H]12 [Compound 33] | 32 | 4 | 2 | >32 | 4 | 8 | 1 |  |  |  |  |  |  |  | 
3 | C[C@@H](O)[C@H]1C(=O)N2C(C(=O)O)=C(CN3CCCC3CNC(=O)c3ccc(O)c(O)c3Cl)[C@H](C)[C@H]12 (some centres unmarked) [Compound 34] | 8 | 2 | 8 | >32 | 2 | 8 | 8 |  |  |  |  |  |  |  | 
4 | C[C@@H](O)[C@H]1C(=O)N2C(C(=O)O)=C(CN3CCCC3CNC(=O)c3ccc(O)c(O)c3Cl)[C@H](C)[C@H]12 (some centres unmarked) [Compound 35] | 8 | 2 | 4 | >32 | 4 | 4 | 2 |  |  |  |  |  |  |  | 
5 | C[C@@H](O)[C@H]1C(=O)N2C(C(=O)O)=C(CN3CCC(C(=O)NCc4ccc(O)c(O)c4Cl)C3)[C@H](C)[C@H]12 (some centres unmarked) [Compound 37] | 32 | 8 | 8 | >32 | 8 | 16 | 4 |  |  |  |  |  |  |  | 
6 | C[C@@H](O)[C@H]1C(=O)N2C(C(=O)O)=C(CN3CC(NC(=O)c4ccc(O)c(O)c4Cl)C3)[C@H](C)[C@H]12 [Compound 38] | 4 | 2 | 4 | 16 | 0.5 | 4 | 0.25 |  |  |  |  |  |  |  | 
7 | C[C@@H](O)[C@H]1C(=O)N2C(C(=O)O)=C(CN3CC(C(=O)NCc4ccc(O)c(O)c4Cl)C3)[C@H](C)[C@H]12 [Compound 39] | 8 | 2 | 16 | 8 | 4 | 8 | 1 |  |  |  |  |  |  |  | 
8 | C[C@@H](O)[C@H]1C(=O)N2C(C(=O)[O-])=C(C[N+](C)(C)CCNC(=O)c3ccc(O)c(O)c3Cl)[C@H](C)[C@H]12 [Compound 40] | 16 | 4 | 4 | 16 | 8 | 8 | 4 |  |  |  |  |  |  |  | 
9 | C[C@@H](O)[C@H]1C(=O)N2C(C(=O)O)=C(CN(CCNC(=O)c3ccc(O)c(O)c3F)CCNC(=O)c3ccc(O)c(O)c3F)[C@H](C)[C@H]12 [Compound 101] |  |  |  |  |  |  |  | 2 | 2 | 0.25 | 1 | 4 | 1 | >32 | 0.5
10 | C[C@@H](O)[C@H]1C(=O)N2C(C(=O)O)=C(CN(CCCNC(=O)c3ccc(O)c(O)c3F)CCNC(=O)c3ccc(O)c(O)c3F)[C@H](C)[C@H]12 [Compound 102] |  |  |  |  |  |  |  | 1 | 1 | 0.25 | 1 | 4 | 2 | >32 | 0.5
11 | C[C@@H](O)[C@H]1C(=O)N2C(C(=O)O)=C(CN(CCCNC(=O)c3ccc(O)c(O)c3F)CCCNC(=O)c3ccc(O)c(O)c3F)[C@H](C)[C@H]12 [Compound 103] |  |  |  |  |  |  |  | 1 | 1 | 0.25 | 2 | 4 | 8 | >32 | 1
12 | C[C@@H](O)[C@H]1C(=O)N2C(C(=O)O)=C(CN(CCCCNC(=O)c3ccc(O)c(O)c3F)CCCNC(=O)c3ccc(O)c(O)c3F)[C@H](C)[C@H]12 [Compound 104] |  |  |  |  |  |  |  | 2 | 1 | 0.5 | 2 | 4 | 4 | >32 | 1
13 | C[C@@H](O)[C@H]1C(=O)N2C(C(=O)O)=C(CN(CCNC(=O)c3ccc(O)c(O)c3Cl)CCNC(=O)c3ccc(O)c(O)c3Cl)[C@H](C)[C@H]12 [Compound 105] |  |  |  |  |  |  |  | 2 | 1 | 0.5 | 1 | 2 | 0.5 | 16 | 0.5
14 | C[C@@H](O)[C@H]1C(=O)N2C(C(=O)O)=C(CN(CCCNC(=O)c3ccc(O)c(O)c3Cl)CCNC(=O)c3ccc(O)c(O)c3Cl)[C@H](C)[C@H]12 [Compound 106] |  |  |  |  |  |  |  | 1 | 1 | 0.25 | 1 | 2 | 1 | >32 | 0.5
